Measured values published in patent EP3498714B1 (priority 2017, dated 2019).
Values after ≈ are worked out from the molar mass of the structure shown. Like-named read-outs stand apart in the source and are kept apart here.

Legend:
[1] = tested on: S. aureus Newman; assay: MIC in RPMI-1640 macrophage growth medium; format: cell-based; conditions: RPMI-1640 macrophage growth medium supplemented with 0.5% (v/v) FBS
Description: Determination of intracellular efficiency. For infection experiments, cells were seeded in 24-well plates in RPMI-1640 supplemented with 10% FBS and 150 nM phorbol 12-myristate 13-acetate (PMA) at a concentration of 10^5 cells/well. After 2 d, the cells were differentiated into macrophages and reached a cell density of ca. 2 x 10^5 cells/well. The medium was then removed and the cells were washed twice with PBS. An inoculum of ca. 2×10^6 CFU (colony-forming units) of S. aureus Newman in log phase (multiplicity of infection, MOI=10) was added to each well in RPMI/10% FBS and the plates were incubated at 37 °C and 5% CO2 in a water vapor-saturated atmosphere. The inoculum was checked by serial dilution and plating on CASO agar (1.5% peptone casein, 0.5% peptone soymeal, 0.5% NaCl, 1.5% agar, pH 7.3). After 2 h, the infected cells were washed three times with PBS (phosphate-buffered saline; pH 7.4) and incubated with fresh growth medium containing 10 µg/mL lysostaphin (≥500 U/mg) for 30 min in order to kill remaining extracellular bacteria. The initial load (Control t0) was checked by recovery of intracellular bacteria and plating on CASO agar. After three times washing with PBS the test compounds were added in RPMI-1640/0.5% FBS at the given concentrations for 18 h. After repeated washing with PBS the intracellular bacteria were recovered by adding ice-cooled water for 10 min and the bacterial suspensions were further diluted in 0.9% (w/v) NaCl prior to plating on CASO agar. The plates were incubated overnight at 37 °C and colonies were counted. The MIC values on S. aureus Newman in RPMI-1640 macrophage growth medium supplemented with 0.5% (v/v) fetal bovine serum (FBS) for neosorangicin A (2), sorangicin A (1) and the reference antibiotic rifampicin (RIF) were 0.01, 0.13 and 0.01 µg/mL, respectively. Human THP-1 macrophages were infected with S. aureus at an MOI (multiplicity of infection) of 10. After killing of extracellular bacteria, the cells were treated for 18 h with the antibiotics at their respective 1x and 8x MIC. […]

[2] = tested on: Escherichia coli DSM-1116 + 3 µg/ml PMBN; assay: Microbroth dilution assay (MIC) with PMBN; format: cell-based; conditions: for Minimum inhibitory concentrations (MIC): 18-24 h
Description: (§1) Bacterial strains. All microorganisms were obtained from the German Collection of Microorganisms and Cell Cultures (Deutsche Sammlung für Mikroorganismen und Zellkulturen, DSMZ) and the American Type Culture Collection (ATCC) or were part of our internal strain collection.
(§2) Antimicrobial Testing. Sorangicin A (1) and Neosorangicin A (2) were tested in microbroth dilution assays on a panel of Gram-positive and Gram-negative bacteria. Overnight cultures were prepared from cryopreserved cultures and were diluted to achieve a final inoculum of 10^4-10^5 cfu/mL. Serial dilutions of compounds in DMSO were prepared in sterile 96-well plates in the test medium (cation-adjusted Müller-Hinton broth; supplemented with 2% (w/v) NaCl for S. aureus and 2.5% (v/v) lysed horse blood for Enterococcus and Streptococcus spp.) The cell suspension was added and microorganisms were grown for 18-24 h at either 30°C or 37°C. Streptococci and enterococci were grown under microaerophilic conditions. Growth inhibition was assessed by visual inspection and given MIC values are the lowest concentration of antibiotic at which there was no visible growth. Table 2. Antimicrobial activity; Minimum inhibitory concentrations (MIC, µg/mL) of neosorangicin A (2), sorangicin A (1), and a reference antibiotic (RIF; Rifampicin) on selected Gram-positive (I) and Gram-negative (II) species.
However, similar to 1, neosorangicin A (2) was not active on a rifampicin-resistant (Rif^R) derivative of S. aureus Newman, which confirms overlapping binding sites on RNA polymerase. […] In addition, the MIC values of 2 on efflux-deficient E. coli mutants (TolC as part of the AcrAB multidrug efflux system) were decreased.

[3] = target: T1, S. aureus RNA polymerase (Staphylococcus aureus, UniProt P47768); assay: RNA polymerase inhibition assay (ProFoldin kit); format: biochemical
T1 construct: purchased ProFoldin, MA
Description: The inhibition of S. aureus RNA polymerase by Sorangicin derivatives 1 and 2 was tested in vitro (bacterial RNA Polymerase Assay Kit; ProFoldin, MA). The samples were prepared and analyzed according to the manufacturer's protocol with slight modifications. In brief, serial dilutions (concentration range: 0.1 nM - 10 µM) of rifampicin, sorangicin A (1) and neosorangicin A (2) in black 384-well plates (low-volume, non-binding surface; Corning) were incubated for 1 h at room temperature with 25 nM RNA polymerase from S. aureus in assay buffer (42.5 mM HEPES, 42.5 mM NH4Cl, 2 mM DTT, 4 mM MgCl2, 0.005 % (v/v) Tween-20; pH 7.5) containing 0.5 mM NTPs and 1x DNA template. The reaction was monitored by incubation with a fluorescent probe for 5 min and measurement of the fluorescence intensity at 535 nm after excitation at 485 nm (Tecan Infinite M200PRO). Half-inhibitory concentrations (IC50) were determined in two independent experiments by sigmoidal curve fitting and given values are IC50 ± SD.

[4] = tested on: Escherichia coli DSM-1116; assay: Microbroth dilution assay (MIC); format: cell-based; conditions: for Minimum inhibitory concentrations (MIC): 18-24 h
Description: as §1, §2

[5] = tested on: Enterococcus faecalis DSM-20478; assay: Microbroth dilution assay (MIC); format: cell-based; conditions: 2.5% lysed horse blood, microaerophilic; for Minimum inhibitory concentrations (MIC): 18-24 h
Description: as §1, §2

[6] = tested on: Staphylococcus aureus Newman (Rif^R); assay: Microbroth dilution assay (MIC); format: cell-based; conditions: for Minimum inhibitory concentrations (MIC): Staphylococcus aureus Newman (Rif^R), 18-24 h, 2% NaCl; for activity on rifampicin-resistant (Rif^R) derivative of S. aureus Newman: result in words
Description: as §1, §2

[7] = tested on: Streptococcus pneumoniae DSM-11865; assay: Microbroth dilution assay (MIC); format: cell-based; conditions: 2.5% lysed horse blood, microaerophilic; for Minimum inhibitory concentrations (MIC): 18-24 h
Description: as §1, §2

[8] = tested on: Klebsiella pneumoniae DSM-30104; assay: Microbroth dilution assay (MIC); format: cell-based; conditions: for Minimum inhibitory concentrations (MIC): 18-24 h
Description: as §1, §2

[9] = tested on: Escherichia coli DSM-26863 (tolC3); assay: Microbroth dilution assay (MIC); format: cell-based; conditions: for Minimum inhibitory concentrations (MIC): Escherichia coli DSM-26863 (tolC3), 18-24 h
Description: as §1, §2

[10] = tested on: Staphylococcus aureus DSM-346; assay: Microbroth dilution assay (MIC); format: cell-based; conditions: 2% NaCl; for Minimum inhibitory concentrations (MIC): 18-24 h
Description: as §1, §2

[11] = tested on: Escherichia coli (TolC-deficient); assay: Microbroth dilution assay (MIC); format: cell-based; conditions: for Minimum inhibitory concentrations (MIC): Escherichia coli (TolC-deficient), 18-24 h
Description: as §1, §2

[12] = tested on: Pseudomonas aeruginosa DSM-1128; assay: Microbroth dilution assay (MIC); format: cell-based; conditions: for Minimum inhibitory concentrations (MIC): 18-24 h
Description: as §1, §2

[13] = tested on: Acinetobacter baumannii DSM-30008; assay: Microbroth dilution assay (MIC); format: cell-based; conditions: for Minimum inhibitory concentrations (MIC): 18-24 h
Description: as §1, §2

[14] = tested on: Enterococcus faecium DSM-20477; assay: Microbroth dilution assay (MIC); format: cell-based; conditions: 2.5% lysed horse blood, microaerophilic; for Minimum inhibitory concentrations (MIC): 18-24 h
Description: as §1, §2

[15] = tested on: Staphylococcus aureus ATCC29213; assay: Microbroth dilution assay (MIC); format: cell-based; conditions: 18-24 h, 2% NaCl
Description: as §1, §2

[16] = tested on: Staphylococcus aureus Newman; assay: Microbroth dilution assay (MIC); format: cell-based; conditions: 18-24 h, 2% NaCl
Description: as §1, §2

[17] = tested on: intracellular S. aureus Newman; assay: Intracellular efficacy in infected THP-1 macrophages; format: cell-based; conditions: intracellular S. aureus Newman in PMA-differentiated THP-1 macrophages; MOI 10; 18 h treatment at 1x and 8x MIC
Description: (§3) Cells. Human acute monocytic leukemia THP-1 cells (ACC-16) were obtained from the German Collection of Microorganisms and Cell Cultures (DSMZ) and were maintained under conditions recommended by the depositor.
Determination of intracellular efficiency. For infection experiments, cells were seeded in 24-well plates in RPMI-1640 supplemented with 10% FBS and 150 nM phorbol 12-myristate 13-acetate (PMA) at a concentration of 10^5 cells/well. After 2 d, the cells were differentiated into macrophages and reached a cell density of ca. 2 x 10^5 cells/well. The medium was then removed and the cells were washed twice with PBS. An inoculum of ca. 2×10^6 CFU (colony-forming units) of S. aureus Newman in log phase (multiplicity of infection, MOI=10) was added to each well in RPMI/10% FBS and the plates were incubated at 37 °C and 5% CO2 in a water vapor-saturated atmosphere. The inoculum was checked by serial dilution and plating on CASO agar (1.5% peptone casein, 0.5% peptone soymeal, 0.5% NaCl, 1.5% agar, pH 7.3). After 2 h, the infected cells were washed three times with PBS (phosphate-buffered saline; pH 7.4) and incubated with fresh growth medium containing 10 µg/mL lysostaphin (≥500 U/mg) for 30 min in order to kill remaining extracellular bacteria. […] The plates were incubated overnight at 37 °C and colonies were counted. […]

[18] = tested on: Human THP-1 macrophages; assay: Toxicity towards THP-1 macrophages (microscopic control); format: cell-based; conditions: 18 h treatment at 1x and 8x MIC
Description: • Figure 1. Chemical structures of sorangicin A (1) and of a compound according to the present invention - neosorangicin A - (2). • Figure 2. A) Reduction of intracellular S. aureus Newman (CFU: colony-forming unit) in PMA-differentiated THP-1 cells after 18 h treatment with rifampicin (RIF), neosorangicin A (2) and sorangicin A (1) at their respective 1x and 8x MIC. B) Microscopic control of THP-1 cells that were either treated with neosorangicn A (2) or 0.5% (v/v) DMSO as solvent control. • Figure 3. Comparison of sorangicin and neosorangicin biosynthetic pathways. Wavy bond symbolize phosphopantheteinyl arms. ACP domains are shown as small, unlabeled circles. Domains that are missing from one of the two pathways are shown as asterisks.
as §3
Determination of intracellular efficiency. For infection experiments, cells were seeded in 24-well plates in RPMI-1640 supplemented with 10% FBS and 150 nM phorbol 12-myristate 13-acetate (PMA) at a concentration of 10^5 cells/well. After 2 d, the cells were differentiated into macrophages and reached a cell density of ca. 2 x 10^5 cells/well. […] The plates were incubated overnight at 37 °C and colonies were counted. […]

[19] = DSM1116, 18-24 h, read-out: Minimum inhibitory concentrations (MIC)
[20] = read-out: Minimum inhibitory concentrations (MIC)
[21] = purified S. aureus RNA polymerase 25 nM, 1 h at room temperature, IC50 ± SD, two independent experiments, read-out: IC50

T1 sequence (P47768 whole entry): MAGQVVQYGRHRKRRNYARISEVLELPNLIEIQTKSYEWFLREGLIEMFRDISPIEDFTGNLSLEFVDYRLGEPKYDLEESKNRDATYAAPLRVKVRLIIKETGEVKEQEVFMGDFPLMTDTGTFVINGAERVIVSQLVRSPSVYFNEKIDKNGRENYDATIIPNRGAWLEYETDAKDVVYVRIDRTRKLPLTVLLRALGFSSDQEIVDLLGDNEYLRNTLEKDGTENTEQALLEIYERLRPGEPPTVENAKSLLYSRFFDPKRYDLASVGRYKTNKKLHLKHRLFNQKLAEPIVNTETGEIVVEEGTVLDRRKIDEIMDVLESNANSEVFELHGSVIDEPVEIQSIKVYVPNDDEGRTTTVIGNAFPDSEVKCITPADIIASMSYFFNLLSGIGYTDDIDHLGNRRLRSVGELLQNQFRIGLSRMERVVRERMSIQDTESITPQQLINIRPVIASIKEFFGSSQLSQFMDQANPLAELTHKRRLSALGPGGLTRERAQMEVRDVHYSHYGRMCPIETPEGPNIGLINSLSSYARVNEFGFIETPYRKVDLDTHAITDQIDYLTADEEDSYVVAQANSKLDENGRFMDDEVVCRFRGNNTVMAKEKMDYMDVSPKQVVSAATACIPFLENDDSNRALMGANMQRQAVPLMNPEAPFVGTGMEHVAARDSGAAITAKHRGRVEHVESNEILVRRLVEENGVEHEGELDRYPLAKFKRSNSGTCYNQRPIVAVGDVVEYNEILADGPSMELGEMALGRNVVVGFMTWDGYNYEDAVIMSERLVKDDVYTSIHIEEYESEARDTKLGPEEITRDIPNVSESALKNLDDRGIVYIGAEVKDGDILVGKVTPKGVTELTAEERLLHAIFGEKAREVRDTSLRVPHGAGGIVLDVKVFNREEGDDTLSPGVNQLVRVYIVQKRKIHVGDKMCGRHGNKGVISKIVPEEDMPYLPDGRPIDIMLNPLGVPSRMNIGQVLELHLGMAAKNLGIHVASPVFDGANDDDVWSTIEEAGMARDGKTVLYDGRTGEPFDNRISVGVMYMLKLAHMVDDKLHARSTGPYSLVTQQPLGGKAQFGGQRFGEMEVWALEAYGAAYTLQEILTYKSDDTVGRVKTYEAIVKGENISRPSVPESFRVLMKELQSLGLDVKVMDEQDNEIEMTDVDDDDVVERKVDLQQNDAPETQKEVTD

Row | Compound | MIC values on S. aureus Newman [1] [µg/mL] | Minimum inhibitory concentrations (MIC) [2] [µg/mL] | IC50 [3, 21] [nM] | Minimum inhibitory concentrations (MIC) [4] [µg/mL] | Minimum inhibitory concentrations (MIC) [5] [µg/mL] | Minimum inhibitory concentrations (MIC) [6] [µg/mL] | activity on rifampicin-resistant (Rif^R) derivative of S. aureus Newman [6] | Minimum inhibitory concentrations (MIC) [7] [µg/mL] | Minimum inhibitory concentrations (MIC) [8] [µg/mL] | Minimum inhibitory concentrations (MIC) [9] [µg/mL] | Minimum inhibitory concentrations (MIC) [10] [µg/mL] | Minimum inhibitory concentrations (MIC) [11] [µg/mL] | Minimum inhibitory concentrations (MIC) [12] [µg/mL] | Minimum inhibitory concentrations (MIC) [13] [µg/mL] | Minimum inhibitory concentrations (MIC) [14] [µg/mL] | Minimum inhibitory concentrations (MIC) [15] [µg/mL] | Minimum inhibitory concentrations (MIC) [16] [µg/mL] | other results
1 | CO[C@H]1/C=C/O[C@@]2(C)Oc3c(C)c(O)c4c(O)c(c(/C=N/N5CCN(C)CC5)c(O)c4c3C2=O)NC(=O)/C(C)=C\C=C\[C@H](C)[C@H](O)[C@@H](C)[C@@H](O)[C@@H](C)[C@H](OC(C)=O)[C@@H]1C [RIF, Rifampicin] | – | – | – | – | – | – | – | – | – | – | – | – | – | – | – | – | – | MIC ([1]; Staphylococcus aureus, NEWMAN): 0.01 µg/mL (≈ 0.0122 µM); MIC [2, 19]: 0.4 µg/mL (≈ 0.486 µM); IC50 [3]: 30 ± 20 nM; MIC [4, 19]: 6.4 µg/mL (≈ 7.78 µM); MIC ([5]; DSM20478, 18-24 h, read-out: Minimum inhibitory concentrations (MIC)): 6.4 µg/mL (≈ 7.78 µM); MIC ([6]; Staphylococcus aureus, NEWMAN, read-out: Minimum inhibitory concentrations (MIC)): > 6.4 µg/mL; MIC ([7]; DSM11865, 18-24 h, read-out: Minimum inhibitory concentrations (MIC)): 0.1 µg/mL (≈ 0.122 µM); MIC ([8]; DSM30104, 18-24 h, read-out: Minimum inhibitory concentrations (MIC)): 6.4 µg/mL (≈ 7.78 µM); MIC ([9]; Escherichia coli, DSM26863, read-out: Minimum inhibitory concentrations (MIC)): 6.4 µg/mL (≈ 7.78 µM); MIC ([10]; DSM346, 18-24 h, read-out: Minimum inhibitory concentrations (MIC)): 0.006 µg/mL (≈ 0.00729 µM); MIC ([11]; Escherichia coli, read-out: Minimum inhibitory concentrations (MIC)): 6.4 µg/mL (≈ 7.78 µM); MIC ([12]; DSM1128, 18-24 h, read-out: Minimum inhibitory concentrations (MIC)): > 6.4 µg/mL; MIC ([13]; DSM30008, 18-24 h, read-out: Minimum inhibitory concentrations (MIC)): 1.6 µg/mL (≈ 1.94 µM); MIC ([14]; DSM20477, 18-24 h, read-out: Minimum inhibitory concentrations (MIC)): > 6.4 µg/mL; MIC [15, 20]: 0.01 µg/mL (≈ 0.0122 µM); MIC [16, 20]: 0.01 µg/mL (≈ 0.0122 µM)
2 | neosorangicin A [compound 2] | 0.01 | 0.25 | 60 ± 10 | 8 | 0.5 | > 64 | not active | 0.5 | 8 | 2 | 0.25 | 1 | 8 | 8 | 8 | 0.01 | 0.01 | reduction of the bacterial load [17]: 3 Log; toxicity towards the human macrophages [18]: without displaying any apparent toxicity
3 | sorangicin A [compound 1] | 0.13 | 0.25 | 210 ± 120 | 16 | 2 | > 64 | not active | 32 | 16 | 8 | 1 | 8 | 32 | 8 | 16 | 0.03 | 0.1 | –
